In ChEMBL document CHEMBL1687876, “Quercetin reduces neutrophil recruitment induced by CXCL8, LTB4, and fMLP: inhibition of actin polymerization” (J Nat Prod, 2011):
Activity calls are given as the source filed them. No cut-off for these calls is given here.

Columns and labels:
Neutrophil [1] = assay: Inhibition of CXCR2 protein expression in human neutrophil at 100 nM after 30 mins by flow cytometry; assay type: functional, cell-based
Neutrophil [2] = assay: Antiinflammatory activity in human neutrophil assessed as inhibition of CXCL8-induced neutrophil chemoattraction 10 nM after 2 hrs by Boyden chamber v; assay type: functional, cell-based
Mus musculus [3] = assay: Inhibition of LTB4-induced neutrophil recruitment in Swiss mouse at 100 mg/kg, sc administered pre-inflammatory stimulus after 6 hrs by Newbauer chamber using Romanowsky stain; assay type: functional, organism-based; design: dose 100 mg/kg
Neutrophil [4] = assay: Antiinflammatory activity in human neutrophil assessed as inhibition of fMLP-induced neutrophil chemoattraction 300 to 1000 nM after 2 hrs by Boyden chamber v; assay type: functional, cell-based
Neutrophil [5] = assay: Antiinflammatory activity in human neutrophil assessed as inhibition of CXCL8-induced neutrophil chemoattraction 100 nM after 2 hrs by Boyden chamber v; assay type: functional, cell-based
Mus musculus [6] = assay: Inhibition of CXCL1-induced neutrophil recruitment in Swiss mouse at 100 mg/kg, sc administered pre-inflammatory stimulus after 6 hrs by Newbauer chamber using Romanowsky stain; assay type: functional, organism-based; design: dose 100 mg/kg
Mus musculus [7] = assay: Inhibition of LTB4-induced neutrophil recruitment in Swiss mouse at 30 mg/kg, sc administered pre-inflammatory stimulus after 6 hrs by Newbauer chamber using Romanowsky stain; assay type: functional, organism-based; design: dose 30 mg/kg
Neutrophil [8] = assay: Antiinflammatory activity in human neutrophil assessed as inhibition of LTB4-induced neutrophil chemoattraction 30 nM after 2 hrs by Boyden chamber v; assay type: functional, cell-based
Neutrophil [9] = assay: Inhibition of fMLP-induced actin polymerization in human neutrophil at 100 nM after 30 mins by DAPI staining based immunofluorescence; assay type: functional, cell-based
Neutrophil [10] = assay: Inhibition of CXCR1 protein expression in human neutrophil at 100 nM after 30 mins by flow cytometry; assay type: functional, cell-based
Neutrophil [11] = assay: Antiinflammatory activity in human neutrophil assessed as inhibition of fMLP-induced neutrophil chemoattraction 100 nM after 2 hrs by Boyden chamber v; assay type: functional, cell-based
Mus musculus [12] = assay: Inhibition of fMLP-induced neutrophil recruitment in Swiss mouse at 300 mg/kg, sc administered pre-inflammatory stimulus after 6 hrs by Newbauer chamber using Romanowsky stain; assay type: functional, organism-based; design: dose 300 mg/kg
Neutrophil [13] = assay: Inhibition of BLT1 protein expression in human neutrophil at 100 nM after 30 mins by flow cytometry; assay type: functional, cell-based
Neutrophil [14] = assay: Inhibition of LTB4-induced actin polymerization in human neutrophil at 100 nM after 30 mins by DAPI staining based immunofluorescence; assay type: functional, cell-based
Mus musculus [15] = assay: Inhibition of CXCL1-induced neutrophil recruitment in Swiss mouse at 300 mg/kg, sc administered pre-inflammatory stimulus after 6 hrs by Newbauer chamber using Romanowsky stain; assay type: functional, organism-based; design: dose 300 mg/kg
Mus musculus [16] = assay: Inhibition of CXCL5-induced neutrophil recruitment in Swiss mouse at 100 mg/kg, sc administered pre-inflammatory stimulus after 6 hrs by Newbauer chamber using Romanowsky stain; assay type: functional, organism-based; design: dose 100 mg/kg
Neutrophil [17] = assay: Antiinflammatory activity in human neutrophil assessed as inhibition of LTB4-induced neutrophil chemoattraction 10 nM after 2 hrs by Boyden chamber v; assay type: functional, cell-based
Neutrophil [18] = assay: Inhibition of FLPR1 protein expression in human neutrophil at 100 nM after 30 mins by flow cytometry; assay type: functional, cell-based
Mus musculus [19] = assay: Inhibition of fMLP-induced neutrophil recruitment in Swiss mouse at 30 mg/kg, sc administered pre-inflammatory stimulus after 6 hrs by Newbauer chamber using Romanowsky stain; assay type: functional, organism-based; design: dose 30 mg/kg
Neutrophil [20] = assay: Antiinflammatory activity in human neutrophil assessed as inhibition of LTB4-induced neutrophil chemoattraction 100 nM after 2 hrs by Boyden chamber v; assay type: functional, cell-based
Neutrophil [21] = assay: Antiinflammatory activity in human neutrophil assessed as inhibition of CXCL8-induced neutrophil chemoattraction 300 to 1000 nM after 2 hrs by Boyden chamber v; assay type: functional, cell-based
Mus musculus [22] = assay: Inhibition of CXCL1-induced neutrophil recruitment in Swiss mouse at 30 mg/kg, sc administered pre-inflammatory stimulus after 6 hrs by Newbauer chamber using Romanowsky stain; assay type: functional, organism-based; design: dose 30 mg/kg
Neutrophil [23] = assay: Antiinflammatory activity in human neutrophil assessed as inhibition of fMLP-induced neutrophil chemoattraction 10 nM after 2 hrs by Boyden chamber v; assay type: functional, cell-based
Neutrophil [24] = assay: Antiinflammatory activity in human neutrophil assessed as inhibition of CXCL8-induced neutrophil chemoattraction 30 nM after 2 hrs by Boyden chamber v; assay type: functional, cell-based
Mus musculus [25] = assay: Inhibition of CXCL5-induced neutrophil recruitment in Swiss mouse at 30 mg/kg, sc administered pre-inflammatory stimulus after 6 hrs by Newbauer chamber using Romanowsky stain; assay type: functional, organism-based; design: dose 30 mg/kg
Mus musculus [26] = assay: Inhibition of fMLP-induced neutrophil recruitment in Swiss mouse at 100 mg/kg, sc administered pre-inflammatory stimulus after 6 hrs by Newbauer chamber using Romanowsky stain; assay type: functional, organism-based; design: dose 100 mg/kg
Mus musculus [27] = assay: Inhibition of LTB4-induced neutrophil recruitment in Swiss mouse at 300 mg/kg, sc administered pre-inflammatory stimulus after 6 hrs by Newbauer chamber using Romanowsky stain; assay type: functional, organism-based; design: dose 300 mg/kg
Neutrophil [28] = assay: Antiinflammatory activity in human neutrophil assessed as inhibition of LTB4-induced neutrophil chemoattraction 300 to 1000 nM after 2 hrs by Boyden chamber v; assay type: functional, cell-based
Mus musculus [29] = assay: Inhibition of CXCL5-induced neutrophil recruitment in Swiss mouse at 300 mg/kg, sc administered pre-inflammatory stimulus after 6 hrs by Newbauer chamber using Romanowsky stain; assay type: functional, organism-based; design: dose 300 mg/kg
Neutrophil [30] = assay: Inhibition of CXCL8-induced actin polymerization in human neutrophil at 100 nM after 30 mins by DAPI staining based immunofluorescence; assay type: functional, cell-based
Neutrophil [31] = assay: Antiinflammatory activity in human neutrophil assessed as inhibition of fMLP-induced neutrophil chemoattraction 30 nM after 2 hrs by Boyden chamber v; assay type: functional, cell-based

SMILES: O=c1c(O)c(-c2ccc(O)c(O)c2)oc2cc(O)cc(O)c12
- inhibition (Neutrophil [1]): inactive
- inhibition (Neutrophil [2]): Active
- inhibition (Mus musculus [3]): Active
- inhibition (Neutrophil [4]): Active
- inhibition (Neutrophil [5]): Active
- inhibition (Mus musculus [6]): Active
- inhibition (Mus musculus [7]): inactive
- inhibition (Neutrophil [8]): Active
- inhibition (Neutrophil [9]): Active
- inhibition (Neutrophil [10]): inactive
- inhibition (Neutrophil [11]): Active
- inhibition (Mus musculus [12]): Active
- inhibition (Neutrophil [13]): inactive
- inhibition (Neutrophil [14]): Active
- inhibition (Mus musculus [15]): Active
- inhibition (Mus musculus [16]): Active
- inhibition (Neutrophil [17]): Active
- inhibition (Neutrophil [18]): inactive
- inhibition (Mus musculus [19]): Active
- inhibition (Neutrophil [20]): Active
- inhibition (Neutrophil [21]): Active
- inhibition (Mus musculus [22]): inactive
- inhibition (Neutrophil [23]): Active
- inhibition (Neutrophil [24]): Active
- inhibition (Mus musculus [25]): inactive
- inhibition (Mus musculus [26]): Active
- inhibition (Mus musculus [27]): Active
- inhibition (Neutrophil [28]): Active
- inhibition (Mus musculus [29]): Active
- inhibition (Neutrophil [30]): Active
- inhibition (Neutrophil [31]): Active
